One experiment has as its system MV411 xenograft tumors. Put plainly: Response of AML model MV411 to BH3 mimetic treatment. Type of experiment: in vivo, mice. Conditions: MV411 xenograft tumor lysates, 24 hours after treatment; NSC798846 25 mg/kg intravenously, NSC766270 100 mg/kg orally (FIG. 7B).
For another experiment, the system named is AMO1 xenografts. To be noted: intravenous injection; Kotschy et al.; cited from earlier work.
A further experiment has as its system cleaved caspase-3. The experiment can be described thus: Cleaved caspase-3 level in treated cancer cell lines. Type of experiment: cell-based, human. On the set-up: dose or concentration left out as unconfirmed. The method, then: (§1) Further studies were conducted to evaluate the effect of BH3 mimetics on Bcl-2 family heterodimer levels and induction of apoptosis.
(§2) Similar studies were performed in AMO-1 plasmacytoma cells and Mv4-11 acute myeloid leukemia cells. […] The level of cleaved caspase-3 was also determined.

In the next experiment the test system is AMO-1 cell line. To be noted: read-out: IC50 (sensitivity to S63845), Kotschy et al., Nature 2016; cited from earlier work.
Experiment [1] relates to MV4-11 human AML xenograft model. Conditions: in vivo; compared with AMO1 xenografts; Kotschy et al.; cited from earlier work.
The next experiment concerns BAX-BAK heterodimer. The experiment can be described thus: Heterodimer immunoassay, BAX-BAK in lysates of treated cancer cell lines. Type of experiment: cell-based, human. Further details: BAX-BAK heterodimers: dose or concentration left out as unconfirmed. To be noted: for BAX-BAK levels: HCT116 and MOLT-4 cancer cell lines (FIG. 4C). As to the method:
(§3) The immunoassays described herein were built on the Luminex xMAP multiplex technology platform using magnetic bead capture. Washes were performed with a 96-well magnetic plate washer (ELx405), BioTek). During incubation, the plates were placed on an orbital titer plate shaker (VWR International). Liquid handling was performed manually with calibrated, adjustable, precision multichannel pipettes (Rainin 8-Channel). All assays were performed in 96-well plates (BioPlex, BioRad) at 25° C.±3° C. by adding 10 μL of blocking solution (Myriad RBM) and 30 μL of calibrator, control, or unknown sample. Antibody-coupled beads were sonicated for 5 seconds and then vortexed at medium speed for 10 to 20 seconds to disperse the beads, and 10 μL beads (250 beads/analyte/μL) were added to each well per analyte. Plates were protected from light (Black Microplate Lid, VWR) and incubated for 1 hour at 25° C.±3° C. with shaking. Plates were washed with wash solution (Myriad RBM), and then 40 μL of detection antibody-biotin conjugate was added and plates were incubated for an additional hour with shaking. After incubation with the antibody-biotin conjugate, 40 μL of R-phycoerythrin-labeled streptavidin (Invitrogen) was added, and plates were incubated for 30 minutes with shaking. After a final wash, 100 μL of assay buffer was added to each well and plates were read on a Luminex 200 reader.
as §1, §2

A further experiment deals with T1, Bcl-2-BIM complexes (Homo sapiens, UniProt P10415).
T1 construct: from tissue; host or cells: AMO-1 xenograft tumors grown in mice
Put plainly: Heterodimer complexes in AMO-1 xenograft tumor lysates after treatment, Bcl-2-BIM. Type of experiment: in vivo, mice. To be noted: 16 hours after treatment, NSC798846 25 mg/kg intravenously, NSC766270 100 mg/kg orally (FIG. 7A). The method, then:
as §3

The next experiment relates to BIM. Conditions: AMO-1 xenograft tumor lysates, 16 hours after 25 mg/kg intravenously (FIG. 7A). As to the method: The effect of two different BH3 mimetics on heterodimer composition in the AMO-1 and MV411 models was next evaluated. […] Heterodimer complexes were measured in tumor lysates prepared from AMO-1 mice 16 hours after treatment and from MV411 mice 24 hours after treatment.

The target of the next experiment is T2, BIM-Mcl-1 heterodimer (Homo sapiens, UniProt Q07820).
T2 construct: Within cells, anti-apoptotic proteins exist primarily as complexed heterodimers with pro-apoptotic proteins; endogenous in cells; host or cells: AMO-1, MV4-11 (Mv411), HCT116, MOLT-4
The experiment can be described thus: Heterodimer immunoassay, BIM-Mcl-1 in lysates of treated cancer cell lines. Type of experiment: cell-based. Further details: BIM-Mcl-1 heterodimers: dose or concentration left out as unconfirmed. The method, then: as §3, §1, §2

The next experiment deals with BIM-Bcl-xL heterodimer (Homo sapiens, UniProt Q07817). The experiment can be described thus: Heterodimer immunoassay, BIM-Bcl-xL in lysates of treated cancer cell lines. Type of experiment: cell-based. Further details: BIM-Bcl-xL heterodimeric complexes: dose or concentration left out as unconfirmed. The method, then:
as §3, with “After incubation with the antibody-biotin conjugate, 40 μL of R-phycoerythrin-labeled streptavidin (Invitrogen) was added, and plates were incubated for 30 minutes with shaking.” left out, “reader. […]” for “reader.”
as §2

The next experiment concerns BAK-BAX oligomerization. Put plainly: Heterodimer complexes in AMO-1 xenograft tumor lysates after treatment, BAK-BAX. Type of experiment: in vivo, mice. To be noted: 16 hours after treatment, 100 mg/kg orally (FIG. 7A). As to the method: as §3, with “Plates were washed with wash solution (Myriad RBM), and then 40 μL of detection antibody-biotin conjugate was added and plates were incubated for an additional hour with shaking. After incubation with the antibody-biotin conjugate, 40 μL of R-phycoerythrin-labeled streptavidin (Invitrogen) was added, and plates were incubated for 30 minutes with shaking.” left out
Heterodimer complexes were measured in AMO-1 and MV11 xenograft tumor lysates using the immunoassay described in Examples 3 and 4. […] The level of cleaved caspase-3 was also measured. […] Heterodimer composition was also measured in blood or bone marrow samples of 11 patients with CLL.

In a further experiment the test system is AMO-1 xenograft tumors. The experiment can be described thus: Response of multiple myeloma model AMO-1 to BH3 mimetic treatment. Conditions: 100 mg/kg orally, 16 hours (FIG. 7A). Type of experiment: in vivo, mice.
The mark [2] stands for this setting: AMO-1 cells, treated vs untreated (FIG. 5B, 5C).
[3] abbreviates: HCT116 and MOLT-4 cancer cell lines (FIG. 4D).
The mark [4] stands for this setting: Mv4-11 cells, treated vs untreated (FIG. 5D, 5E).
The mark [5] stands for this setting: Mv4-11 cells, treated with vs untreated (FIG. 5D, 5E).

Structures are written as SMILES. pIC50: −log10 of the molar value. Bounds are passed on as bounds.

T2 sequence (Q07820 whole entry, one chain of several): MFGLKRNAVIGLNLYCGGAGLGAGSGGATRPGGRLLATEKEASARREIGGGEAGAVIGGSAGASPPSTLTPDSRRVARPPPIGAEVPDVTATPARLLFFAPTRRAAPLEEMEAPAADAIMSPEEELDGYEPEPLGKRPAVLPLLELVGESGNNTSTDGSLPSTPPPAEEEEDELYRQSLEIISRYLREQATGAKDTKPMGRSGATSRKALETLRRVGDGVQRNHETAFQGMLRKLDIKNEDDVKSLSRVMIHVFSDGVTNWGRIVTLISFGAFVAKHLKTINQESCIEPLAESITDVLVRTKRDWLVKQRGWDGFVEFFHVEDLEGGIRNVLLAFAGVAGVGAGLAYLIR
Chain of BIM-Bcl-xL heterodimer (Q07817 whole entry, one chain of several): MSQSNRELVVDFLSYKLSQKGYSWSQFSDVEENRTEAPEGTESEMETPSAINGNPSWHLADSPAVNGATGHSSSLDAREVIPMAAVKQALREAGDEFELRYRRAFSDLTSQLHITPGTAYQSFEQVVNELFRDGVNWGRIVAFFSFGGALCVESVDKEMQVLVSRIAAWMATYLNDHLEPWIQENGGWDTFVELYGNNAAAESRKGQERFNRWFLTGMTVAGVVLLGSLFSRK
T1 sequence (P10415 whole entry, one chain of several): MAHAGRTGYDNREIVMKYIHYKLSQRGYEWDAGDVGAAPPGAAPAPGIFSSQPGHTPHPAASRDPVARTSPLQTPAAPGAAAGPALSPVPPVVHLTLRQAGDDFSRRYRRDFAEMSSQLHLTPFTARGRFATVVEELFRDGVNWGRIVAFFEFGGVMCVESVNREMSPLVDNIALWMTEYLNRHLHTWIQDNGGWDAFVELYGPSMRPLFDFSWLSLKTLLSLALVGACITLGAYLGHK

Broadly, the pIC50 is −log10 of the IC50, conventionally taken in molar units. As for `Cc1c(-c2c(-c3ccc(F)o3)sc3ncnc(O[C@H](Cc4ccccc4OCc4ccnn4CC(F)(F)F)C(=O)O)c23)ccc(OCCN2CCN(C)CC2)c1Cl` [S63845], the “disrupting the balance of BIM complexes and initiating caspase-3 activation and cell death” value in the experiment with MV411 xenograft tumors was “equally effective”. For the same molecule, the “anti-tumor activity in AMO1 xenografts” value in the experiment on AMO1 xenografts is on record as “dose-dependent anti-tumor activity”. Also, the figures for the “cleaved caspase-3” value in the experiment with cleaved caspase-3 (setting [2]), with cleaved caspase-3 (setting [3]) and in the experiment with cleaved caspase-3 (setting [4]) were “increase”, “increased activation” and “significant increase”, respectively. Also, the pIC50 with AMO-1 cell line is above 7.00. Also, the “activity in MV4-11 human AML xenograft model” value in experiment [1] is “less potent activity”. For the same molecule, the BAX-BAK heterodimers result is given as “increase” in the experiment with BAX-BAK heterodimer (AMO-1 cells, treated with vs untreated (FIG. 5B)) and “significant increase” in the experiment on BAX-BAK heterodimer (setting [5]). For the same molecule, the BAX-BAK levels result with BAX-BAK heterodimer is reported as “increased”. Also, the Bcl-2-BIM complexes result on Bcl-2-BIM complexes is recorded as “disruption”. Also, the “BIM (overall)” value with BIM is reported as “overall degradation”.

Take `CC1(C)CCC(c2ccc(Cl)cc2)=C(CN2CCN(c3ccc(C(=O)NS(=O)(=O)c4ccc(N[C@H](CCN5CCOCC5)CSc5ccccc5)c(S(=O)(=O)C(F)(F)F)c4)cc3)CC2)C1` [novitoclax]: the BIM-Mcl-1 levels result at BIM-Mcl-1 heterodimer (AMO-1 and Mv411 cell lines, in vitro (FIG. 3A)) is recorded as “largely unaffected”; at BIM-Mcl-1 heterodimer (HCT116 and MOLT-4 cancer cell lines (FIG. 4B)), “increased”. In addition, the BIM-Mcl-1 heterodimers entry on BIM-Mcl-1 heterodimer (setting [5]) is listed as “increase”. The BIM-Bcl-xL levels result at BIM-Bcl-xL heterodimer (HCT116 and MOLT-4 cancer cell lines (FIG. 4A)) is recorded as “disrupted”. Moreover, at BIM-Bcl-xL heterodimer (Mv4-11 cells, treated vs untreated (FIG. 5E)), the BIM-Bcl-xL heterodimeric complexes entry was “decrease”. Besides, the results for the “cleaved caspase-3” value with cleaved caspase-3 (setting [2]), with cleaved caspase-3 (setting [3]) and in the experiment on cleaved caspase-3 (setting [4]) were “did not lead to a significant increase”, “increased activation” and “increase”, respectively. Further, the BAX-BAK levels entry in the experiment on BAX-BAK heterodimer was “increased”. In addition, the BAX-BAK heterodimers result in the experiment on BAX-BAK heterodimer (setting [5]) is “increase”.

On to `CC1(C)CCC(CN2CCN(c3ccc(C(=O)NS(=O)(=O)c4ccc(NCC5CCOCC5)c([N+](=O)[O-])c4)c(Oc4cnc5[nH]ccc5c4)c3)CC2)=C(c2ccc(Cl)cc2)C1` [NSC766270], for which the “disrupting the balance of BIM complexes and initiating caspase-3 activation and cell death” value in the experiment with MV411 xenograft tumors was “equally effective”. Also, the “BAK-BAX oligomerization (mitochondrial poration marker), subsequent caspase-3 activation and cell death” value with BAK-BAX oligomerization was “did not initiate”. Further, the “effectiveness of treatment in multiple myeloma model AMO-1” value in the experiment on AMO-1 xenograft tumors is recorded as “ineffective”.
